Test results as given in BindingDB's records for PubMed 995128 (1976).
Where “and” joins values, the source holds several entries; their conditions need not be identical. Identical values can stand only once. Counter-ions that a name gives are not always drawn.

What was measured:
D(2) dopamine receptor = D(2) dopamine receptor (Bos taurus, UniProt P20288)
D(1A) dopamine receptor = D(1A) dopamine receptor (Bos taurus, UniProt Q95136)
Sequence of D(1A) dopamine receptor (Q95136 whole entry): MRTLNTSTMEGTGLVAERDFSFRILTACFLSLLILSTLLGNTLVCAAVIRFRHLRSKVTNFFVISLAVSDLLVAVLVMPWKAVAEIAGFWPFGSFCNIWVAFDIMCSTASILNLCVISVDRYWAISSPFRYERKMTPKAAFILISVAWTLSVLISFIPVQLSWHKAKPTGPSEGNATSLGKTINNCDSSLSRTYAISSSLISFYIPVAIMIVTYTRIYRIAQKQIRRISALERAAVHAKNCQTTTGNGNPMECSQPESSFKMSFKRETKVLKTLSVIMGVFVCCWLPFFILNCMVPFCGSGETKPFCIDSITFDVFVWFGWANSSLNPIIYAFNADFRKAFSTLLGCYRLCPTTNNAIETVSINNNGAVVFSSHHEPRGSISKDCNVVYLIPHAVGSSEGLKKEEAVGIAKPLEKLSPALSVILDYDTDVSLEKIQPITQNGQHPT

Sequence of D(2) dopamine receptor (P20288 whole entry): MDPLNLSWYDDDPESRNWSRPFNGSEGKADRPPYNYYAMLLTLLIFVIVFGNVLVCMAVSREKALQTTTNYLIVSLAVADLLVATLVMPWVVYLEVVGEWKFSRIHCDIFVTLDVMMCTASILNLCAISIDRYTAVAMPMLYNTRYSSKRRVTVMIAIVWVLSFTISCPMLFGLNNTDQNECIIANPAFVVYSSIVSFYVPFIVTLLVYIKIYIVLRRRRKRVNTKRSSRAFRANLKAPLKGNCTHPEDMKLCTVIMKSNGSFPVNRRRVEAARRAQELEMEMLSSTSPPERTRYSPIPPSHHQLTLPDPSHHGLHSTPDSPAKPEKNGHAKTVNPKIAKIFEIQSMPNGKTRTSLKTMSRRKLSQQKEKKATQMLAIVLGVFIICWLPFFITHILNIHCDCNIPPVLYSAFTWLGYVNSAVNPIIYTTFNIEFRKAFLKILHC

SMILES	Ki (D(2) dopamine receptor)	Ki (D(1A) dopamine receptor)
O=C(CCCN1CCC(O)(c2ccc(Cl)c(C(F)(F)F)c2)CC1)c1ccc(F)cc1 [CAS_10457-91-7]	0.0005 µM	0.36 µM
O=C1NCN(c2ccccc2)C12CCN(CCCC(c1ccc(F)cc1)c1ccc(F)cc1)CC2	0.0006 µM	1.4 µM
OCCN1CCN(CCCC2c3ccc(F)cc3Sc3ccc(C(F)(F)F)cc32)CC1 (stereo not given) [NSC_68751]	0.0026 µM	1.9 µM
CC[C@@H](CO)NC(=O)[C@@H]1C=C2c3cccc4c3c(cn4C)C[C@H]2N(C)C1	0.16 µM	0.29 µM
CCN(CC)C(=O)[C@@H]1C=C2c3cccc4[nH]c(Br)c(c34)C[C@H]2N(C)C1 [LSD,2-Bromo]	0.004 µM	0.054 µM
CC(C)C[C@H]1C(=O)N2CCC[C@H]2[C@]2(O)O[C@](NC(=O)[C@@H]3C=C4c5cccc6[nH]c(Br)c(c56)C[C@H]4N(C)C3)(C(C)C)C(=O)N12 [Bromocriptine+ (GTP+)]	0.0025 µM	–
OCCN1CCN(CC/C=C2/c3ccccc3Sc3ccc(Cl)cc32)CC1 [2-[4-[(3Z)-3-(2-chloro-9-thioxanthenylidene)propyl]-1-piperazinyl]ethanol;hydrochloride]	0.0031 µM	0.48 µM
NCC(O)c1ccc(O)c(O)c1 (stereo not drawn) [Noradrenaline,(+)]	> 10 µM and 5.6 µM	0.82 µM and 0.2 µM
COc1ccc2c(c1O)-c1c3c(cc4c1[C@H](C2)N(C)CC4)OCO3 [(S)-11-methoxy-7-methyl-6,7,7a,8-tetrahydro-5H-benzo[g][1,3]dioxolo[4',5':4,5]benzo[1,2,3-de]quinolin-12-ol]	0.93 µM	0.8 µM
O=C(CCCN1CCC(n2c(O)nc3ccccc32)CC1)c1ccc(F)cc1 [CAS_2062-84-2]	0.00033 µM	4.1 µM
CCc1c(C)[nH]c2c1C(=O)C(CN1CCOCC1)CC2 (stereo not given) [Moban]	0.068 µM and 0.065 µM and 0.085 µM and 0.09 µM	> 10 µM
CSc1ccc2c(c1)N(CC[C@@H]1CCCCN1C)c1ccccc1S2 [10-[2-(1-Methyl-piperidin-2-yl)-ethyl]-2-methylsulfanyl-10H-phenothiazine (thioridazine)]	–	1.8 µM and 1.78 µM and 1.81 µM
CC(CN1c2ccccc2Sc2ccccc21)N(C)C (stereo not drawn) [N,N,alpha-trimethyl-10H-phenothiazine-10-ethanamine]	0.24 µM	> 10 µM
CN(C)CCCN1c2ccccc2Sc2ccc(C(F)(F)F)cc21 [TRIFLUPROMAZINE]	0.0021 µM	0.53 µM
CC(C)[C@@]1(NC(=O)[C@@H]2C=C3c4cccc5[nH]cc(c45)C[C@H]3N(C)C2)O[C@@]2(O)[C@@H]3CCCN3C(=O)[C@H](Cc3ccccc3)N2C1=O [SMR000058447]	0.0014 µM	0.052 µM
CN1CCN(CCCN2c3ccccc3Sc3ccc(C(F)(F)F)cc32)CC1	0.0021 µM	0.74 µM
OC1(c2ccc(Cl)c(C(F)(F)F)c2)CCN(CCCC(c2ccc(F)cc2)c2ccc(F)cc2)CC1 [Penfluridol]	0.0056 µM	1.6 µM
CC(C)=CCN1CC[C@@]2(C)c3cc(O)ccc3C[C@@H]1[C@@H]2C [Talwin]	3.5 µM	> 10 µM
Cc1ccc(N(CC2=NCCN2)c2cccc(O)c2)cc1 [SMR000059054]	2 µM	> 10 µM
O=C(CCCN1CCC(O)(c2ccc(Br)cc2)CC1)c1ccc(F)cc1 [BROMPERIDOL]	0.0014 µM	0.6 µM
CCC(=O)C(CC(C)N(C)C)(c1ccccc1)c1ccccc1 (stereo not given) [CAS_5967-73-7]	2.7 µM	> 10 µM
COc1ccccc1N1CCN(CCCC(=O)c2ccc(F)cc2)CC1 [Fluanisone]	0.0038 µM	0.8 µM
CN(C)CC/C=C1\c2ccccc2Sc2ccc(Cl)cc21	0.0044 µM	0.25 µM
CC(C)C[C@H]1C(=O)N2CCCC2[C@]2(O)O[C@](NC(=O)[C@@H]3C=C4c5cccc6[nH]cc(c56)CC4N(C)C3)(C(C)C)C(=O)N12 (stereo partly drawn) [ALPHA-ERGOCRYPTINE]	0.0013 µM	0.069 µM

SMILES	Ki (D(2) dopamine receptor)	Ki (D(1A) dopamine receptor)
CN1CCC(=C2c3ccccc3C=Cc3ccccc32)CC1 [5-(1-methylpiperidylidene-4)-5H-dibenzo(a,d)cyclopheptene]	0.065 µM	1.2 µM
O=c1[nH]c2ccccc2n1C1CCN(CCCC(c2ccc(F)cc2)c2ccc(F)cc2)CC1 [1-(1-(4,4-bis(4-fluorophenyl)butyl)piperidin-4-yl)-1H-benzo[d]imidazol-2(3H)-one]	0.00081 µM and 0.0006 µM	5.3 µM and 7.6 µM and 6.8 µM
NC1CCc2cc(O)c(O)cc2C1 (stereo not given)	0.12 µM	0.011 µM
CC(C)NC(=O)C1C=C2c3cccc4[nH]cc(c34)CC2N(C)C1 (stereo not given) [CAS_60-79-7]	–	0.061 µM
OCCN1CCN(CCCN2c3ccccc3Sc3ccc(C(F)(F)F)cc32)CC1 [2-[4-[3-[2-(trifluoromethyl)phenothiazin-10-yl]propyl]piperazin-1-yl]ethanol;hydrochloride]	0.00088 µM and 0.0006 µM and 0.0003 µM and 0.0008 µM	–
O=C(CCCN1CCC(O)(c2ccc(Cl)cc2)CC1)c1ccc(F)cc1 [4-[4-(4-Chloro-phenyl)-4-hydroxy-piperidin-1-yl]-1-(4-fluoro-phenyl)-butan-1-one;propionate(HCl)]	–	0.92 µM and 1.06 µM and 1.1 µM
CC(C)[C@H]1C(=O)N2CCC[C@H]2[C@]2(O)O[C@](NC(=O)[C@@H]3C=C4c5cccc6[nH]cc(c56)C[C@H]4N(C)C3)(C(C)C)C(=O)N12 [ERGOCORNINE]	0.0007 µM	0.036 µM
CNCCc1ccc(O)c(O)c1 [CAS_62-32-8]	0.53 µM	0.023 µM
O=C(CCC(F)N1CCC(O)(c2cccc(C(F)(F)F)c2)CC1)c1ccccc1 (stereo not given) [CAS_749-13-3]	0.00095 µM	0.74 µM
Cc1ccc(C2(O)CCN(CCCC(=O)c3ccc(F)cc3)CC2)cc1 [NSC_4249]	0.0019 µM	1.2 µM
NC(=O)C1(N2CCCCC2)CCN(CCCC(=O)c2ccc(F)cc2)CC1 [CAS_1893-33-0]	0.031 µM	4.9 µM
OCCC1CCN(CCC=C2c3ccc(F)cc3Sc3ccc(C(F)(F)F)cc32)CC1 [CAS_60197-32-2]	0.0009 µM	0.067 µM
O=C(CCCN1CC=C(n2c(=O)[nH]c3ccccc32)CC1)c1ccc(F)cc1 [1-(1-(4-(4-fluorophenyl)-4-oxobutyl)-1,2,3,6-tetrahydropyridin-4-yl)-1H-benzo[d]imidazol-2(3H)-one]	0.001 µM	0.88 µM
CSc1ccc2c(c1)C(N1CCN(C)CC1)Cc1ccccc1S2 (stereo not given) [methanesulfonic acid;1-methyl-4-(3-methylsulfanyl-5,6-dihydrobenzo[b][1]benzothiepin-5-yl)piperazine]	0.0014 µM	0.21 µM
CN1CCN2c3ccccc3Cc3ccccc3[C@H]2C1 [MIANSERIN (+)]	0.62 µM	2.5 µM
CN1C[C@H](C(=O)N[C@]2(C)O[C@@]3(O)[C@@H]4CCCN4C(=O)[C@H](Cc4ccccc4)N3C2=O)C=C2c3cccc4[nH]cc(c34)C[C@H]21 [12'-hydroxy-2'-methyl-5'alpha-(phenylmethyl)ergotaman-3',6',18-trione]	0.0018 µM	0.03 µM
NCCc1ccc(O)c(O)c1	–	0.0175 µM and 0.0168 µM and 0.0117 µM
OCCN1CCN(CCC=C2c3ccccc3Sc3ccc(Cl)cc32)CC1 [NSC_12454]	0.088 µM	> 10 µM
CN(C)CCCN1c2ccccc2Sc2ccccc21	0.072 µM	7.1 µM
CC(COc1ccccc1)N(CCCl)Cc1ccccc1 (stereo not given)	0.14 µM	> 10 µM
CN(C)CCCN1c2ccccc2CCc2ccccc21	0.18 µM	> 10 µM
CNCC(O)c1ccc(O)c(O)c1 (stereo not given) [EPINEPHRINE]	2.6 µM and > 10 µM	0.28 µM and 1.2 µM
O=C(CCCN1CCN(c2ccccn2)CC1)c1ccc(F)cc1 [1-(4-Fluoro-phenyl)-4-(4-pyridin-2-yl-piperazin-1-yl)-butan-1-one(Azaperone)]	0.01 µM	1.7 µM
CN1C2CCC1CC(OC(c1ccccc1)c1ccccc1)C2 (stereo not given)	0.23 µM	> 10 µM
